# Reference: patent publication US11964971B2, “Methods and compositions for modulating splicing” (Skyhawk Therapeutics, Inc., priority 2019, dated 2024)
# What was measured:
# [1] = system: MDR1; test: in vitro; conditions: dog; for Papp A→B at 120 min, 5 μM: MDCK-MDR1, pH 7.4, MDCK-MDR1: Papp A-B (10^−6, cm/s); for Papp B→A at 120 min, 5 μM: MDCK-MDR1, pH 7.4, MDCK-MDR1: Papp B-A (10^−6, cm/s)
# [2] = system: MDR1 (P-gp); test: MDCK-MDR1 permeability assay, blood-brain-barrier penetration potential; conditions: dog, MDCK-MDR1, pH 7.4, MDCK-MDR1 Efflux Ratio
# [3] = system: SMN protein; test: SMN protein assay (MSD) in SMA patient fibroblasts (GM03813); type: cell-based, human
# Procedure, shortened: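 Absolute SMN protein measured by Mesoscale Discovery assay in lysates, calibrated per plate with SMN standards (1–19.5 μg/ml). Cells: GM03813 SMA fibroblasts, 7000/well, 48 h compound exposure at doses of 2.5 μM down to 0.6 nM.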
# [4] = system: MDR1-MDCK cell monolayers; conditions: dog, MDCK-MDR1, 120 min, 5 μM, pH 7.4
SMILES,"Papp A→B at 120 min, 5 μM [1] [×10⁻⁶ cm/s]","Papp B→A at 120 min, 5 μM [1] [×10⁻⁶ cm/s]","efflux ratio at 120 min, 5 μM [2]",EC50 [3] [nM],MDCK-MDR1: % Recov A-B (%) [4] [%],MDCK-MDR1: % Recov B-A (%) [4] [%]
"Oc1cc(-c2cn[nH]c2)c(F)cc1-c1cnc(N(C2CC2)[C@@H]2CC3CC[C@H](N3)[C@@H]2F)cn1 (single isomer, unassigned) [Compound 41E1]",6.63,39.2,8,501 to 10000,54,75
"CN(c1cnc(-c2ccc(-c3cc(=O)n(C)cn3)cc2O)cn1)[C@H]1C[C@@H]2CCC(N2)[C@H]1F (single isomer, unassigned) [Compound 47E2]",3.35,51.1,15,51 to 100,84,90
"CN(c1cnc(-c2cc3ncn(CC(F)(F)F)c(=O)c3cc2O)cn1)[C@H]1C[C@@H]2CCC[C@@H](N2)[C@H]1F [Compound 18E2, 7-(5-(((1R,2R,3S,5S)-2-fluoro-9-azabicyclo[3.3.1]nonan-3-yl)(methyl)amino)pyrazin-2-yl)-6-hydroxy-3-(2,2,2-trifluoroethyl)quinazolin-4(3H)-one]",1.33,73.5,56,501 to 10000,82,87
"Cn1cnc(-c2ccc(-c3cnc(N(C4CC4)[C@@H]4CC5CC[C@H](N5)[C@@H]4F)cn3)c(O)c2)cc1=O (single isomer, unassigned) [Compound 55E1]",2.46,64.4,26,501 to 10000,81,85
"CN(c1cnc(-c2cc(F)c(-c3cc(=O)n(C)cn3)cc2O)cn1)[C@H]1C[C@@H]2CCC(N2)[C@H]1F (single isomer, unassigned) [Compound 33E2]",3.5,62.7,18,501 to 10000,91,99
"COc1cc(-c2ccc(-c3cnc(N(C4CC4)[C@@H]4CC5CC[C@H](N5)[C@@H]4F)cn3)c(O)c2)cc(F)n1 (single isomer, unassigned) [Compound 52E1]",0.92,0.71,1,501 to 10000,12,76
"CN(c1cnc(-c2ccc(-c3cnn(C)c3)cc2O)cn1)[C@@H]1[C@H](F)[C@H]2CCC(N2)[C@@H]1F (single isomer, unassigned) [Compound 4E2]",4.94,27.9,6,16 to 50,44,63
"Cc1nc(-c2ccc(-c3cnc(N(C)[C@H]4C[C@@H]5CCC(N5)[C@H]4F)cn3)c(O)c2)no1 (single isomer, unassigned) [Compound 69E2]",9.26,20.3,2,101 to 500,47,62
"CN(C)C(=O)c1cc(O)c(-c2cnc(N(C)[C@H]3C[C@@H]4CCC(N4)[C@H]3F)cn2)cc1F (single isomer, unassigned) [Compound 14E2]",0.91,59.1,65,501 to 10000,87,88
"COc1cc(-c2ccc(-c3cnc(N(C)[C@@H]4CC5COC[C@H](N5)[C@@H]4F)cn3)c(O)c2)cnn1 (single isomer, unassigned) [Compound 74E1]",1.87,45.5,24,501 to 10000,88,98
"CNC(=O)/C=C/c1cc(O)c(-c2cnc(N(C3CC3)[C@@H]3C[C@@]4(C)CC[C@](C)(N4)[C@@H]3F)cn2)cc1F [Compound 79E1, (E)-3-(4-(5-(cyclopropyl((1S,2R,3R,5R)-2-fluoro-1,5-dimethyl-8-azabicyclo[3.2.1]octan-3-yl)amino)pyrazin-2-yl)-2-fluoro-5-hydroxyphenyl)-N-methylacrylamide]",1.67,45.3,27,501 to 10000,84,88
"COc1cc(-c2ccc(-c3cnc(N(C4CC4)[C@@H]4CC5CC[C@H](N5)[C@@H]4F)cn3)c(O)c2)ncn1 (single isomer, unassigned) [Compound 56E1]",2.09,7.91,4,501 to 10000,17,51
"COc1cc(-c2cc(O)c(-c3cnc(N(C)[C@H]4C[C@@H]5CCC(N5)[C@H]4F)cn3)cc2F)cc(F)n1 (single isomer, unassigned) [Compound 31E2]",0.33,0.5,2,16 to 50,59,67
"Cn1cc(-c2ccc(-c3cnc(N(C4CC4)[C@H]4C[C@]5(C)CC[C@@](C)(N5)[C@H]4F)cn3)c(O)c2)cn1 [Compound 75E2, 2-(5-(cyclopropyl((1R,2S,3S,5S)-2-fluoro-1,5-dimethyl-8-azabicyclo[3.2.1]octan-3-yl)amino)pyrazin-2-yl)-5-(1-methyl-1H-pyrazol-4-yl)phenol]",2.39,16.9,7,101 to 500,38,66
"CN(c1cnc(-c2ccc(-c3cnn(C)c3)cc2O)cn1)[C@@H]1CC2CC(F)(F)[C@@H](C1)N2 (single isomer, unassigned) [Compound 10E1]",22.9,26.1,1,501 to 10000,59,86
"COc1cc(-c2ccc(-c3cnc(N(C)[C@@H]4CC5CC[C@H](N5)[C@@H]4F)cn3)c(O)c2)ccn1 (single isomer, unassigned) [Compound 43E1]",1.06,1.31,1,101 to 500,18,50
"CN(c1cnc(-c2ccc(-c3cc(=O)n(C)cn3)cc2O)cn1)[C@@H]1CC2CC[C@H](N2)[C@@H]1F (single isomer, unassigned) [Compound 47E1]",2.32,52.8,23,101 to 500,74,78
"CN(c1cnc(-c2cc3oc(C(=O)N4CCC4)cc3cc2O)cn1)[C@H]1C[C@@H]2CCC(N2)[C@H]1F (single isomer, unassigned) [Compound 20E2]",0.94,41.9,45,501 to 10000,75,79
"CN(c1cnc(-c2ccc(-c3nnco3)cc2O)cn1)[C@H]1C[C@@H]2CCC(N2)[C@H]1F (single isomer, unassigned) [Compound 80E2]",8.23,30.8,4,501 to 10000,73,80
"CN(c1cnc(-c2ccc(-c3cnn(C)c3)cc2O)cn1)[C@@H]1C[C@H]2CCC[C@H](N2)[C@@H]1F [Compound 4E1, 2-(5-(((1S,2S,3R,5R)-2-fluoro-9-azabicyclo[3.3.1]nonan-3-yl)(methyl)amino)pyrazin-2-yl)-5-(1-methyl-1H-pyrazol-4-yl)phenol]",4.89,31.4,6,51 to 100,44,66
"CN(c1cnc(-c2ccc(-c3cn[nH]c3)cc2O)cn1)[C@@H]1C[C@@]2(C)CC[C@H](N2)[C@@H]1F [Compound 28E4, 2-(5-(((1R,3R,4S,5S)-4-fluoro-1-methyl-8-azabicyclo[3.2.1]octan-3-yl)(methyl)amino)pyrazin-2-yl)-5-(1H-pyrazol-4-yl)phenol]",4.42,48.4,11,501 to 10000,68,84
"COc1cc(-c2ccc(-c3cnc(N(C4CC4)[C@H]4C[C@@H]5CCC(N5)[C@H]4F)cn3)c(O)c2)cc(F)n1 (single isomer, unassigned) [Compound 52E2]",1.63,3.32,2,501 to 10000,12,49
"O=c1cc(-c2ccc(-c3cnc(N(C4CC4)[C@@H]4CC5CC[C@H](N5)[C@@H]4F)cn3)c(O)c2)ccn1CF (single isomer, unassigned) [Compound 54E1]",1.92,43.4,23,501 to 10000,64,70
